The results in this text go back to PubChem BioAssay AID1963451 (Molecular Pharmacology Branch, DTP, NCI, 2024).

Some results are limits rather than exact numbers.

The assay concerns 521955-158-R6-J3-PDC complex spheroid growth, % test/control. The assay can be described thus: Anticancer human tumor 521955-158-R6-J3-PDC patient-derived pancreatic carcinoma cell line growth inhibition [Asc]. Particulars: for viability, T/C: stronger effect = lower value. Put shortly:
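Tumor cells were grown as multicellular spheroids with stromal HUVEC and mesenchymal stem cells and treated singly or in combination. Concentrations fell in half-log steps from the clinical Cmax, or from 10 microM where none was known.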

A word on the IC50: it is the concentration needed to halve the response being measured. By viability, T/C is commonly meant the result in the treated group divided by that in the control group, in per cent.
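Further: spheroids exposed to compounds for 7 days.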
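Wherever viability, T/C is given: 100% = DMSO vehicle control wells.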

Consider `NC1CCC(NC2CC2c2ccccc2)CC1` (centres undefined) + Cc1c(S(C)(=O)=O)c(-c2cc(F)cc(N3CCN(c4ccc(NS(=O)(=O)c5ccc(NC(CCN6CCC(C(=O)OCCCP(=O)(O)O)CC6)CSc6ccccc6)c(S(=O)(=O)C(F)(F)F)c5)cc4)CC3)c2)c(-c2ccc(Cl)cc2)n1C(C)C, for which the IC50 runs as follows: (curve of first compound, second compound 0.0316 µM) more than 100 nM; (curve of first compound, second compound 0.1 µM) more than 100 nM; (curve of first compound, second compound 0.316 µM) less than 0.316 nM; (curve of first compound, second compound 1 µM) less than 0.316 nM; (curve of first compound, second compound 3.16 µM) less than 0.316 nM; (curve of first compound, second compound 10 µM) less than 0.316 nM. Moreover, the viability, T/C was 83.7% (second compound 0.0316 µM, first compound 0.000316 µM); 97.1% (second compound 0.0316 µM, first compound 0.001 µM); 80.8% (second compound 0.0316 µM, first compound 0.00316 µM); 92.7% (second compound 0.0316 µM, first compound 0.01 µM); 96.6% (second compound 0.0316 µM, first compound 0.0316 µM); 90.4% (second compound 0.0316 µM, first compound 0.1 µM). Moreover, the viability, T/C is, setting by setting: (second compound 0.1 µM, first compound 0.000316 µM) 97.7%; (second compound 0.1 µM, first compound 0.001 µM) 94.7%; (second compound 0.1 µM, first compound 0.00316 µM) 87.4%; (second compound 0.1 µM, first compound 0.01 µM) 74.8%; (second compound 0.1 µM, first compound 0.0316 µM) 79.1%; (second compound 0.1 µM, first compound 0.1 µM) 73.3%. Moreover, the viability, T/C by setting is: (second compound 0.316 µM, first compound 0.000316 µM) 47.1%; (second compound 0.316 µM, first compound 0.001 µM) 51.2%; (second compound 0.316 µM, first compound 0.00316 µM) 55.4%; (second compound 0.316 µM, first compound 0.01 µM) 61.9%; (second compound 0.316 µM, first compound 0.0316 µM) 43.9%; (second compound 0.316 µM, first compound 0.1 µM) 63.8%. For the same compound, the viability, T/C is 29% (second compound 1 µM, first compound 0.000316 µM); 36.1% (second compound 1 µM, first compound 0.001 µM); 38.5% (second compound 1 µM, first compound 0.00316 µM); 29.1% (second compound 1 µM, first compound 0.01 µM); 45.4% (second compound 1 µM, first compound 0.0316 µM); 36.6% (second compound 1 µM, first compound 0.1 µM). In addition, the viability, T/C reads like this: (second compound 3.16 µM, first compound 0.000316 µM) 16.8%; (second compound 3.16 µM, first compound 0.001 µM) 19.4%; (second compound 3.16 µM, first compound 0.00316 µM) 20%; (second compound 3.16 µM, first compound 0.01 µM) 20.5%; (second compound 3.16 µM, first compound 0.0316 µM) 20.6%; (second compound 3.16 µM, first compound 0.1 µM) 18.4%. The viability, T/C was 16.8% (second compound 10 µM, first compound 0.000316 µM); 11.2% (second compound 10 µM, first compound 0.001 µM); 16.9% (second compound 10 µM, first compound 0.00316 µM); 11.9% (second compound 10 µM, first compound 0.01 µM); 11.8% (second compound 10 µM, first compound 0.0316 µM); 11.5% (second compound 10 µM, first compound 0.1 µM).
On to `CNC(C)C(=O)NC1CN(S(=O)(=O)c2cccc(S(=O)(=O)N3CCC4CCC(C(=O)NC(c5ccccc5)c5ccccc5)N4C(=O)C(NC(=O)C(C)NC)C3)c2)CCC2CCC(C(=O)NC(c3ccccc3)c3ccccc3)N2C1=O` (centres undefined), for which the IC50 runs as follows: (compound alone, run of 11/15/2022) more than 1000 nM; (curve of compound) more than 1000 nM.
